From ChEMBL document CHEMBL1155000, “Discovery of a novel series of Notch-sparing gamma-secretase inhibitors” (Bioorg Med Chem Lett, 2008)

System: not listed separately
Assay: (§1) Inhibition of mouse notch expressed in CHO cells assessed as transactivation of soluble alkaline phosphatase reporter system
Type: cell-based

EC50 [µM] | Compound
0.746 | CCOC(=O)N1CCC(c2ccccc2)(S(=O)(=O)c2ccc(Cl)cc2)CC1
20 | CC[C@H](C)[C@@H](CO)NS(=O)(=O)c1ccc(Cl)cc1
4.09 | CCC(CC)[C@@H](CO)NS(=O)(=O)c1ccc(Cl)cc1
20 | CC[C@H](C)[C@@H](CO)NS(=O)(=O)c1ccc(Br)cc1
0.063 | CC(C)[C@H](O)C(=O)N[C@@H](C)C(=O)N[C@@H]1C(=O)N(C)CCc2ccccc21

System: CHO
Assay: as §1
Type: cell-based

Compound | Ratio EC50
C[C@H](NC(=O)[C@@H](O)c1cc(F)cc(F)c1)C(=O)N[C@@H]1C(=O)N(C)N=Cc2ccccc21 | 0.5

System: not listed separately
Assay: Selectivity ratio of EC50 for gamma-secretase to EC50 for mouse notch

Ratio EC50 | Compound
8.8 | CCOC(=O)N1CCC(c2ccccc2)(S(=O)(=O)c2ccc(Cl)cc2)CC1
15 | C[C@H](c1ccc(F)cc1CCCC(=O)O)N(c1cc(F)ccc1F)S(=O)(=O)c1ccc(Cl)cc1
13.9 | CCC(CC)[C@@H](CO)NS(=O)(=O)c1ccc(Cl)cc1

System: not listed separately
Assay: Inhibition of gamma-secretase expressed in CHO cells expressing wild type human recombinant APP assessed as reduction in amyloid beta40 production

Compound | EC50 [µM]
CC[C@H](C)[C@@H](CO)NS(=O)(=O)Nc1ccc(Cl)cc1 | > 30
CC[C@H](C)[C@@H](CO)NS(=O)(=O)c1ccc(OC(F)(F)F)cc1 | 23.5
CC[C@H](C)[C@@H](CO)NC(=O)c1ccc(Cl)cc1 | > 100
CC[C@H](C)[C@@H](CO)NS(=O)(=O)c1cc(Cl)ccc1Cl | 54.8
CC[C@H](C)[C@@H](CO)NS(=O)(=O)c1ccc([N+](=O)[O-])cc1 | 20.9
CC[C@H](C)[C@@H](CO)NS(=O)(=O)c1cccc(Cl)c1 | 18.3
CC[C@H](C)[C@H](NS(=O)(=O)c1ccc(Cl)cc1)C(C)O (some centres undefined) | 49.3
CC[C@H](C)[C@H](NS(=O)(=O)c1ccc(Cl)cc1)C(=O)O | > 100
CC[C@H](C)[C@@H](CO)NS(=O)(=O)c1ccc(C)cc1 | 14.3
CC[C@H](C)[C@@H](CO)NCc1ccc(Cl)cc1 | > 100
CC[C@H](C)[C@@H](CO)NS(=O)(=O)c1cc(Cl)cc(Cl)c1 | 23.5
CC[C@H](C)[C@@H](CO)NS(=O)(=O)c1ccc(C#N)cc1 | > 100
CC[C@H](C)[C@@H](CO)NS(=O)(=O)c1ccccc1Cl | 56.6
CC[C@H](C)[C@@H](CO)NS(=O)(=O)c1ccc(S(C)(=O)=O)cc1 | > 100
CC[C@@H](CO)NS(=O)(=O)c1ccc(Cl)cc1 | > 100
CC[C@H](C)[C@H](NS(=O)(=O)c1ccc(Cl)cc1)C(C)(C)O | > 100
CC(C)C[C@@H](CO)NS(=O)(=O)c1ccc(Cl)cc1 | 15.3
CC[C@H](C)[C@@H](CO)NC(=O)Nc1ccc(Cl)cc1 | 47.3
CC[C@H](C)[C@@H](CO)NC(=O)Cc1ccc(Cl)cc1 | > 100
CC[C@H](C)[C@@H](CO)NS(=O)(=O)c1ccc(Cl)c(Cl)c1 | 37
C[C@@H](CO)NS(=O)(=O)c1ccc(Cl)cc1 | > 100
CC(C)(C)[C@@H](CO)NS(=O)(=O)c1ccc(Cl)cc1 | 29.1
O=S(=O)(N[C@H](CO)c1ccccc1)c1ccc(Cl)cc1 | 68.8

These reach a lower EC50. Values come first.

EC50 [µM] | Compound
12.2 | CCOC(=O)N1CCC(c2ccccc2)(S(=O)(=O)c2ccc(Cl)cc2)CC1
5.45 | CC[C@H](C)[C@@H](CO)NS(=O)(=O)c1ccc(Cl)cc1
0.007 | C[C@H](c1ccc(F)cc1CCCC(=O)O)N(c1cc(F)ccc1F)S(=O)(=O)c1ccc(Cl)cc1
4.24 | CC[C@H](C)[C@@H](CO)NS(=O)(=O)c1ccc(F)cc1
0.294 | CCC(CC)[C@@H](CO)NS(=O)(=O)c1ccc(Cl)cc1
0.758 | CC[C@@H](C)[C@@H](CO)NS(=O)(=O)c1ccc(Cl)cc1
2.21 | CC[C@H](C)[C@@H](CO)NS(=O)(=O)c1ccc(Br)cc1
4.15 | CC[C@H](C)[C@@H](CO)NS(=O)(=O)c1ccccc1
7.84 | CC[C@H](C)[C@@H](CO)NS(=O)(=O)c1ccc(Cl)c(F)c1
0.085 | CCCNC(=O)OC[C@@H](C)N(c1cc(Cl)ccc1CO)S(=O)(=O)c1ccc(Cl)cc1
4.27 | CC[C@H](C)[C@@H](CO)NS(=O)(=O)c1cccc(Cl)c1Cl
0.028 | CC(C)[C@H](O)C(=O)N[C@@H](C)C(=O)N[C@@H]1C(=O)N(C)CCc2ccccc21
6.02 | CC[C@H](C)[C@@H](CO)NS(=O)(=O)c1ccc(C(C)=O)cc1
0.0003 | C[C@H](NC(=O)[C@@H](O)c1cc(F)cc(F)c1)C(=O)N[C@@H]1C(=O)N(C)N=Cc2ccccc21
13.1 | CC[C@H](C)[C@@H](CO)NS(=O)(=O)c1ccc(C(F)(F)F)cc1
4.58 | CC(C)[C@@H](CO)NS(=O)(=O)c1ccc(Cl)cc1
1.12 | O=S(=O)(N[C@H](CO)C1CCCCC1)c1ccc(Cl)cc1
